Test results taken from PMC10112232, “Comparison of Toxicities among Different Bumped Kinase Inhibitor Analogs for Treatment of Cryptosporidiosis” (Antimicrobial Agents and Chemotherapy, 2023).
Where two headings read alike, the source gives them in different places.

Assays:
[1] = Multidose calf toxicity study; assay type: in vivo; conditions: calves
Protocol: Male and female calves were dosed orally with 7.5 or 15 mg/kg BID for 5 days. Adverse effects began on day 4, so the 7.5 mg/kg group received 9 doses total and the 15 mg/kg group received 7 doses total before the experiment was terminated.
A control group of male and female rats were administered vehicle only for controls. […] Observations of feeding and general health were made twice daily. Clinical assessments were made at 1 h after each treatment. Blood was collected for hematology and blood chemistry before the first dose and prior to euthanasia. Necropsy and histology of organs (Liver, heart, lung, kidney, spleen, thymus, brain, spinal cord, nerves of the front and back legs, including muscle, bone marrow femur, stomach, small and large intestine, including lymph nodes, and femur and sternum, including epiphyseal plates, distal hind limb, and thyroid gland) were performed after euthanasia.

[2] = design: method as in PMID 30830766; conditions: mice; cited from earlier work
[3] = Plasma levels and toxicity signs in treated piglets; assay type: in vivo, piglet; conditions: for Cmax: pig, plasma, 5 mg/kg, 5 mg/kg BID
[4] = cited from earlier work; for CO / HR / MAP / PR / QRS / QTcV / SVR / dp/dt@50: dog, IV 0.02 mL/kg/min
hERG = hERG (Homo sapiens, UniProt Q12809); experiment: In vitro inhibition of hERG; assay type: biochemical
From the text: (§1) Methods for synthesis of BKIs ([17], [23]), efficacy against Nluc expressing C. parvum in infected adult IFN-γ KO mice ([6], [9]), in vivo mouse GI tract tissue exposure by LC/MS-MS analysis ([18], [28]), PK analysis of mouse plasma and brain tissue BKI concentrations by LC/MS-MS analysis ([29]), in vivo rat and dog cardiotoxicity screen ([30]), efficacy against IOWA-II strain C. parvum in infected neonatal calves ([13]), efficacy against C. hominis in infected piglets ([12]), in vitro inhibition of C. parvum CDPK1 (CpCDPK1) and human tyrosine kinase SRC (HsSRC) activity ([31]), in vitro inhibition of hERG ([32]), Nluc expressing C. parvum in vitro growth inhibition in infected HCT-8 cells ([6]), in vitro cytotoxicity in CRL-8155 and HepG2 cells ([29]), and mouse locomotor activity box ([33], [34]) have all been previously described. Analytes were measured by LC/MS-MS on an Acquity ultra performance liquid chromatography (UPLC) system in tandem with a Xevo TQ-S mass spectrometer (Waters, Milford, MA, USA).

[5] = Cardiovascular testing in anesthetized rats; assay type: in vivo, rat; conditions: for HR / MAP / dP/dt@50: rat
From the text: as §1

hERG, sequence (Q12809 whole entry): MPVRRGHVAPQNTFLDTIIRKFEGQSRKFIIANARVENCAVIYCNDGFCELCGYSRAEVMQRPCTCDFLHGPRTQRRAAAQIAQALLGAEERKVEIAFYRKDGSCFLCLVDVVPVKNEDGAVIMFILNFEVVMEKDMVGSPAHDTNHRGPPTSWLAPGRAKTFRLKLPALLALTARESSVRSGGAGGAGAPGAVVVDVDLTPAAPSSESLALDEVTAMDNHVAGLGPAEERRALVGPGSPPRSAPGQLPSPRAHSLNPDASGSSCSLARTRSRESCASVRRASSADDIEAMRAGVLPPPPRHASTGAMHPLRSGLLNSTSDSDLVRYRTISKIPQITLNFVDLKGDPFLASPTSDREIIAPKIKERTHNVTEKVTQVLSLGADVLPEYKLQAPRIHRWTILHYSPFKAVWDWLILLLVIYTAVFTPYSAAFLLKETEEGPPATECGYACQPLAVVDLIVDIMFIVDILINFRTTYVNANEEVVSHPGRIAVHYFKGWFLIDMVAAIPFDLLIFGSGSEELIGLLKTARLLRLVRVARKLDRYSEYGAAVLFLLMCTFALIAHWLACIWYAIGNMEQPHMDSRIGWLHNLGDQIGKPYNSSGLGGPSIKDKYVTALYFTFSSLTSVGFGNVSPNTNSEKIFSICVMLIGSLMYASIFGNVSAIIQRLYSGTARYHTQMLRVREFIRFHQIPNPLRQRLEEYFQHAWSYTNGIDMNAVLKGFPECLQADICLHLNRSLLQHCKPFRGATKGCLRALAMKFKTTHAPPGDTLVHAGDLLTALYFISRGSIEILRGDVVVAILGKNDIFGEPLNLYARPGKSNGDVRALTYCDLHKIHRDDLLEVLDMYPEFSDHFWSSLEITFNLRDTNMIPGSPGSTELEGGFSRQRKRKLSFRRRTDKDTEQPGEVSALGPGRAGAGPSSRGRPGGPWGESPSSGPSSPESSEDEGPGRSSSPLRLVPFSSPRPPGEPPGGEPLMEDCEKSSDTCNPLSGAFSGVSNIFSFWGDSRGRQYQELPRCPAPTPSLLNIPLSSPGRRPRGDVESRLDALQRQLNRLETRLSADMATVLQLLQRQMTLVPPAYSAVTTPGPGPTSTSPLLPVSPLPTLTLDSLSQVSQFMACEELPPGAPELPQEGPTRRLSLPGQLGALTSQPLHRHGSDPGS

CCOc1ccc2cc(-c3nn(C(C)(C)CCO)c(N)c3C(N)=O)ccc2c1 [BKI-1770]
bone findings ([1]; both 7.5 and 15 mg/kg BID groups): changes to the epiphyseal growth plates in the femur and sternum | locomotion findings ([1]; oral 15 mg/kg BID, 7 doses total): locomotion problems on days 2 and 3 | blood chemistry and histology vs control animals [2]: no apparent abnormalities | visible signs of toxicity ([3]; 5 mg/kg BID for 5 or 8 days): no visible signs of toxicity | Cmax ([3]; at 2 h post dose 5, read-out: plasma observed Cmax): 2100 ± 1400 nM | Cmax ([3]; at 2 h post dose 8, read-out: plasma observed Cmax): 900 ± 400 nM | effects on MAP, HR, contractility, SVR, CO, QTcV, QRS, PR vs control ([4]; anesthetized dogs, 0.02 mL/kg/min, 150 min): No appreciable effects | CO ([4]; 15 min): 0% | HR ([4]; 15 min): 4% | MAP ([4]; 15 min): 2% | PR ([4]; 15 min): -3 ms | QRS ([4]; 15 min): 0 ms | QTcV ([4]; 15 min): 4 ms | SVR ([4]; 15 min): 2% | dp/dt@50 ([4]; 15 min): 1% | CO ([4]; 30 min): 4% | HR ([4]; 30 min): 5% | MAP ([4]; 30 min): 2% | PR ([4]; 30 min): 0 ms | QRS ([4]; 30 min): 0 ms | QTcV ([4]; 30 min): 1 ms | SVR ([4]; 30 min): -1% | dp/dt@50 ([4]; 30 min): 0% | CO ([4]; 45 min): 3% | HR ([4]; 45 min): 8% | MAP ([4]; 45 min): 2% | PR ([4]; 45 min): -1 ms | QRS ([4]; 45 min): -1 ms | QTcV ([4]; 45 min): 1 ms | SVR ([4]; 45 min): -2% | dp/dt@50 ([4]; 45 min): 1% | CO ([4]; 60 min): -1% | HR ([4]; 60 min): 9% | MAP ([4]; 60 min): 2% | PR ([4]; 60 min): -1 ms | QRS ([4]; 60 min): -2 ms | QTcV ([4]; 60 min): -1 ms | SVR ([4]; 60 min): 2% | dp/dt@50 ([4]; 60 min): -1% | CO ([4]; 75 min): -1% | HR ([4]; 75 min): 9% | MAP ([4]; 75 min): 0% | PR ([4]; 75 min): -1 ms | QRS ([4]; 75 min): -2 ms | QTcV ([4]; 75 min): -3 ms | SVR ([4]; 75 min): 1% | dp/dt@50 ([4]; 75 min): -2% | CO ([4]; 90 min): -9% | HR ([4]; 90 min): 10% | MAP ([4]; 90 min): -1% | PR ([4]; 90 min): 0 ms | QRS ([4]; 90 min): -2 ms | QTcV ([4]; 90 min): -2 ms | SVR ([4]; 90 min): 8% | dp/dt@50 ([4]; 90 min): -6% | CO ([4]; 105 min): -4% | HR ([4]; 105 min): 9% | MAP ([4]; 105 min): -2% | PR ([4]; 105 min): 0 ms | QRS ([4]; 105 min): -3 ms | QTcV ([4]; 105 min): -1 ms | SVR ([4]; 105 min): 2% | dp/dt@50 ([4]; 105 min): -7% | CO ([4]; 120 min): -5% | HR ([4]; 120 min): 10% | MAP ([4]; 120 min): -2% | PR ([4]; 120 min): -1 ms | QRS ([4]; 120 min): -2 ms | QTcV ([4]; 120 min): 0 ms | SVR ([4]; 120 min): 4% | dp/dt@50 ([4]; 120 min): -7% | CO ([4]; 135 min): -8% | HR ([4]; 135 min): 11% | MAP ([4]; 135 min): -3% | PR ([4]; 135 min): -1 ms | QRS ([4]; 135 min): -1 ms | QTcV ([4]; 135 min): -2 ms | SVR ([4]; 135 min): 7% | dp/dt@50 ([4]; 135 min): -7% | CO ([4]; 150 min): -7% | HR ([4]; 150 min): 13% | MAP ([4]; 150 min): -5% | PR ([4]; 150 min): -2 ms | QRS ([4]; 150 min): -1 ms | QTcV ([4]; 150 min): -1 ms | SVR ([4]; 150 min): 4% | dp/dt@50 ([4]; 150 min): -7% | signs of cardiotoxicity ([4]; dogs): no signs of cardiotoxicity

CCOc1ccc2cc(-c3nn(C4CCOCC4)c(N)c3C(N)=O)ccc2n1 [BKI-1841]
IC50 (hERG): > 30 µM | effects on MAP, HR, left ventricular contractility vs vehicle ([5]; anesthetized rats, 30-minute IV infusions of 3, 10, 30 mg/kg, significant >15%): No significant effects | HR ([5]; IV 3 mg/kg): 5% | MAP ([5]; IV 3 mg/kg): 1% | dP/dt@50 ([5]; IV 3 mg/kg): 3% | HR ([5]; IV 10 mg/kg): 3% | MAP ([5]; IV 10 mg/kg): 3% | dP/dt@50 ([5]; IV 10 mg/kg): 4% | HR ([5]; IV 30 mg/kg): 0% | MAP ([5]; IV 30 mg/kg): 2% | dP/dt@50 ([5]; IV 30 mg/kg): 11%
